Source: PubChem BioAssay (NCI)
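Briefly, cells in 96-well plates were exposed to five compound concentrations for 48 h, and endpoints were estimated by linear interpolation. TGI: concentration producing complete growth inhibition.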

How the values were obtained:
Test in all cases: NCI tumour cell line growth inhibition, 48 h
NCI-H522 lung = test system: NCI-H522 lung
SF-295 CNS = test system: SF-295 CNS
OVCAR-3 ovarian = test system: OVCAR-3 ovarian
SF-268 CNS = test system: SF-268 CNS
K-562 leukemia = test system: K-562 leukemia
DLD-1 colon = test system: DLD-1 colon
A549 NSCLC = test system: A549 NSCLC
CCRF-CEM leukemia = test system: CCRF-CEM leukemia
MOLT-4 leukemia = test system: MOLT-4 leukemia
HOP-62 NSCLC = test system: HOP-62 NSCLC
786-0 renal = test system: 786-0 renal
HOP-92 NSCLC = test system: HOP-92 NSCLC
UACC-62 melanoma = test system: UACC-62 melanoma
RXF 393 renal = test system: RXF 393 renal
IGROV1 ovarian = test system: IGROV1 ovarian
OVCAR-8 ovarian = test system: OVCAR-8 ovarian
KM20L2 colon = test system: KM20L2 colon
MALME-3M melanoma = test system: MALME-3M melanoma
SK-MEL-5 melanoma = test system: SK-MEL-5 melanoma
SW-620 colon = test system: SW-620 colon
EKVX NSCLC = test system: EKVX NSCLC
HL-60(TB) leukemia = test system: HL-60(TB) leukemia
SNB-19 CNS = test system: SNB-19 CNS
SNB-78 CNS = test system: SNB-78 CNS
DMS 114 small cell lung = test system: DMS 114 small cell lung
SN12C renal = test system: SN12C renal
OVCAR-5 ovarian = test system: OVCAR-5 ovarian
M19-MEL melanoma = test system: M19-MEL melanoma
SF-539 CNS = test system: SF-539 CNS
HCT-116 colon = test system: HCT-116 colon
SK-MEL-28 melanoma = test system: SK-MEL-28 melanoma
HCT-15 colon = test system: HCT-15 colon
UACC-257 melanoma = test system: UACC-257 melanoma
LXFL 529 NSCLC = test system: LXFL 529 NSCLC
NCI-H23 lung = test system: NCI-H23 lung
HCC-2998 colon = test system: HCC-2998 colon
RPMI-8226 leukemia = test system: RPMI-8226 leukemia
NCI-H460 lung = test system: NCI-H460 lung
SK-MEL-2 melanoma = test system: SK-MEL-2 melanoma
M14 melanoma = test system: M14 melanoma
OVCAR-4 ovarian = test system: OVCAR-4 ovarian
DMS 273 small cell lung = test system: DMS 273 small cell lung
ACHN renal = test system: ACHN renal
U251 CNS = test system: U251 CNS
COLO 205 colon = test system: COLO 205 colon
TK-10 renal = test system: TK-10 renal
SNB-75 CNS = test system: SNB-75 CNS
XF 498 CNS = test system: XF 498 CNS
HT29 colon = test system: HT29 colon
KM12 colon = test system: KM12 colon
UO-31 renal = test system: UO-31 renal
SK-OV-3 ovarian = test system: SK-OV-3 ovarian
SR leukemia = test system: SR leukemia
HOP-18 NSCLC = test system: HOP-18 NSCLC
NCI-H226 lung = test system: NCI-H226 lung

## C#Cc1cccc(N2C(=O)c3c(c(-c4ccccc4)c(-c4ccc(Cc5ccc(-c6c(-c7ccccc7)c7c(c(-c8ccccc8)c6-c6ccccc6)C(=O)N(c6cccc(C#C)c6)C7=O)cc5)cc4)c(-c4ccccc4)c3-c3ccccc3)C2=O)c1
NCI-H522 lung
  TGI: > 100 µM
SF-295 CNS
  TGI: > 100 µM
OVCAR-3 ovarian
  TGI: > 100 µM
SF-268 CNS
  TGI: > 100 µM
K-562 leukemia
  TGI: > 100 µM
DLD-1 colon
  TGI: > 100 µM
A549 NSCLC
  TGI: > 100 µM
CCRF-CEM leukemia
  TGI: > 100 µM
MOLT-4 leukemia
  TGI: > 100 µM
HOP-62 NSCLC
  TGI: > 100 µM
786-0 renal
  TGI: > 100 µM
HOP-92 NSCLC
  TGI: 29 µM
UACC-62 melanoma
  TGI: > 100 µM
RXF 393 renal
  TGI: > 100 µM
IGROV1 ovarian
  TGI: 45.2 µM
OVCAR-8 ovarian
  TGI: > 100 µM
KM20L2 colon
  TGI: > 100 µM
MALME-3M melanoma
  TGI: > 100 µM
SK-MEL-5 melanoma
  TGI: 62 µM
SW-620 colon
  TGI: > 100 µM
EKVX NSCLC
  TGI: > 100 µM
HL-60(TB) leukemia
  TGI: > 100 µM
SNB-19 CNS
  TGI: > 100 µM
SNB-78 CNS
  TGI: > 100 µM
DMS 114 small cell lung
  TGI: > 100 µM
SN12C renal
  TGI: > 100 µM
OVCAR-5 ovarian
  TGI: > 100 µM
M19-MEL melanoma
  TGI: 52 µM
SF-539 CNS
  TGI: > 100 µM
HCT-116 colon
  TGI: > 100 µM
SK-MEL-28 melanoma
  TGI: > 100 µM
HCT-15 colon
  TGI: > 100 µM
UACC-257 melanoma
  TGI: > 100 µM
LXFL 529 NSCLC
  TGI: > 100 µM
NCI-H23 lung
  TGI: > 100 µM
HCC-2998 colon
  TGI: > 100 µM
RPMI-8226 leukemia
  TGI: > 100 µM
NCI-H460 lung
  TGI: > 100 µM
SK-MEL-2 melanoma
  TGI: > 100 µM
M14 melanoma
  TGI: 41.5 µM
OVCAR-4 ovarian
  TGI: > 100 µM
DMS 273 small cell lung
  TGI: > 100 µM
ACHN renal
  TGI: > 100 µM
U251 CNS
  TGI: > 100 µM
COLO 205 colon
  TGI: 66.5 µM
TK-10 renal
  TGI: 53.3 µM
SNB-75 CNS
  TGI: 79.9 µM
XF 498 CNS
  TGI: 72.7 µM
HT29 colon
  TGI: > 100 µM
KM12 colon
  TGI: > 100 µM
UO-31 renal
  TGI: > 100 µM

## CC(=O)Nc1ccc(C(=O)NN2C(=O)C(Cl)/C2=C/c2ccco2)cc1 (centres undefined)
NCI-H522 lung
  TGI: > 100 µM
SF-295 CNS
  TGI: > 100 µM
OVCAR-3 ovarian
  TGI: > 100 µM
SF-268 CNS
  TGI: > 100 µM
K-562 leukemia
  TGI: > 100 µM
DLD-1 colon
  TGI: > 100 µM
A549 NSCLC
  TGI: > 100 µM
CCRF-CEM leukemia
  TGI: > 100 µM
MOLT-4 leukemia
  TGI: > 100 µM
HOP-62 NSCLC
  TGI: > 100 µM
HOP-92 NSCLC
  TGI: > 100 µM
UACC-62 melanoma
  TGI: > 100 µM
IGROV1 ovarian
  TGI: > 100 µM
OVCAR-8 ovarian
  TGI: > 100 µM
MALME-3M melanoma
  TGI: > 100 µM
SK-MEL-5 melanoma
  TGI: > 100 µM
SK-OV-3 ovarian
  TGI: > 100 µM
SW-620 colon
  TGI: > 100 µM
HL-60(TB) leukemia
  TGI: > 100 µM
SNB-19 CNS
  TGI: > 100 µM
OVCAR-5 ovarian
  TGI: > 100 µM
M19-MEL melanoma
  TGI: > 100 µM
SF-539 CNS
  TGI: > 100 µM
HCT-116 colon
  TGI: > 100 µM
SK-MEL-28 melanoma
  TGI: > 100 µM
UACC-257 melanoma
  TGI: > 100 µM
LXFL 529 NSCLC
  TGI: > 100 µM
NCI-H23 lung
  TGI: > 100 µM
HCC-2998 colon
  TGI: > 100 µM
RPMI-8226 leukemia
  TGI: > 100 µM
NCI-H460 lung
  TGI: > 100 µM
SK-MEL-2 melanoma
  TGI: > 100 µM
ACHN renal
  TGI: > 100 µM
U251 CNS
  TGI: > 100 µM
COLO 205 colon
  TGI: > 100 µM
SR leukemia
  TGI: > 100 µM
TK-10 renal
  TGI: > 100 µM
SNB-75 CNS
  TGI: > 100 µM
HT29 colon
  TGI: > 100 µM
HOP-18 NSCLC
  TGI: > 100 µM
KM12 colon
  TGI: > 100 µM
NCI-H226 lung
  TGI: > 100 µM
UO-31 renal
  TGI: > 100 µM
